Laboratory results from patent US6599507B2, “Composition for the treatment of immune deficiencies and methods for its preparation and use” (Ardenia Investments, Ltd., priority 1998, dated 2003).
Entries after “also recorded” stand apart in the source; their conditions may differ.

Assays:
human AFP = molecular target: T1, human AFP (Homo sapiens, UniProt P02771); assay: Competitive substitution of [3H]arachidonic acid from the AFP binding site (Scatchard)
T1 construct: from tissue; host or cells: human cord blood
Method: To determine N-AAP affinity to human AFP a competitive substitution of [5, 6, 8, 9, 11, 12, 14, 15-^3H] arachidonic from the protein's binding site was used. To tubes containing 0.05 nM AFP in 1 ml 0.1 M bicarbonate buffer and 0.7 nM [3H] arachidonic acid and the increasing amounts of arachidonic acid or N-AAP (5-5000 nM) were added. The tubes were incubated for 2 hr at room temperature. To separate protein-bound and free fractions of [3H] arachidonic acid 0.5 ml of 0.5% suspension of activated carbon was added to each tube and incubated at 4° C. for 30 min. The carbon was sedimented by centrifugation at 3000 g, aliquots were added to 10 ml scintillating mixture and the vials were measured in beta-counter.
The binding parameters of arachidonic acid and N-AAP and the number of binding sites per protein molecule were calculated according to Scatchard (Scatchard O., Ann. N.Y. Acad. Sci. 51., p 660-664, 1949).

[1] = test system: antibody-forming cells (AFC) in the spleen of mice immunized with sheep erythrocytes; assay: Humoral immune response: count of antibody-forming cells (AFC) in the spleen according to Cunningham; format: in vivo, mouse; conditions: for relative amount of AFC / total AFC amount: CBA mice, i.v., sheep erythrocytes i.p.; for immunogenic / immunostimulating activity, effect on humoral immune response (in words): mice immunized with sheep erythrocytes
Method: The influence of AFPIN-AAP complexes as well as their basic components on humoral immune response was estimated by counting the quantity of antibody-forming cells (AFC) in the spleen.
AFP was administered intravenously to 10 mouse males of CBA line (weight 18-22 g) in a dose of 0.009 mg per capita. Simultaneously 5% sheep erythrocytes suspension was injected peritoneally (0.2 ml per capita) to both control and experimental animals. The control animals were also injected with the equal volume of NaCl isotonic solution intravenously.
The effect of AFP on humoral immune response was analyzed by counting the quantity of AFC in the spleen according to Cunningham (Cunningham A. J., Nature, v.207, p. 1106-1107, 1965) (per 10^6 spleen cells and per spleen).
N-AAP was administered intravenously to 10 mouse males of CBA line (weight 18-22 g) in a dose of 0.09 mg per capita Simultaneously 5% sheep erythrocytes suspension was injected peritoneally (0.2 ml per capita). Control series were injected with 0.15 ml NaCl isotonic solution intravenously. The effect of N-AAP on humoral immune response was analysed by counting the quantity of AFC in the spleen according to Cunningham (per 10^6 spleen cells and per spleen).
(§1) 0.15 ml AFP/N-AAP complex was administered intravenously to 10 mouse males of CBA line (weight 18-22 g) in a dose of 0.009 mg AFP and 0.09 mg N-AAP per capita. Simultaneously 5% sheep erythrocytes suspension was injected peritoneally (0.2 ml per capita). Control series were intravenously injected with equal volumes of NaCl isotonic solution. The effect of the AFP/N-AAP complex on humoral immune response was analyzed by counting the quantity of AFC in the spleen according to Cunningham (per 10^6 spleen cells and per spleen).
as §1, with “0.045” for “0.09”
as §1, with “0.135” for “0.09”, “capita)” for “capita).”
In order to determine the effect of the inventive complex, 0.15 ml AFP/N-AAP complex was administered intravenously to 10 mouse males of CBA line (weight 18-22 g) in the dose of 0.009 mg rat AFP and 0.09 mg N-AAP per capita. Simultaneously 5% sheep erythrocytes suspension was injected peritoneally (0.2 ml per capita). Control series were injected intravenously with equal volumes of isotonic NaCl solution. The effect of rat AFP/N-AAP complex on humoral immune response was analyzed by counting the quantity of AFC in the spleen according to Cunningham (per 10^6 spleen cells and per spleen).

random breed male mice = assay: Acute toxicity, single intravenous injection, method of Litchfield and Wilcoxon; format: in vivo, mouse
Method: The toxicity of N-AAP was studied in random breed male mice (19-24 g). A water solution of N-AAP was injected once slowly in the tail vein of mice in a range of doses 40-70 mg/kg. Each group of mice included 6 animals, at least The assessment of acute toxicity was carried out according to the method of Litchfield et al. (Litchfield J. T., Wilcoxon F., J. Pharmacol. Exptl. Therap., Vol.96, P. 99-103, 1949).

[2] = mice, single i.v. injection in tail vein

Row | Molecule | Ki (human AFP) [nM] | relative amount of AFC in comparison with control (in words) ([1]; 5-th day after injection) | relative amount of AFC ([1]; 5-th day after injection) [per 10^6 cells] | total AFC amount ([1]; 5-th day after injection) | immunogenic / immunostimulating activity, effect on humoral immune response (in words) [1] | DL10 (random breed male mice; [2]) | DL90 (random breed male mice; [2]) [mg/kg] | DL50 (random breed male mice; mice, single i.v. injection in tail vein, p = 0.05) | therapeutic index (random breed male mice; mouse, in vivo) | n (number of binding sites per protein molecule) (human AFP; three independent determinations, Scatchard) | total AFC amount in comparison with control (in words) ([1]; 5-th day after injection) | lower relative amount of AFC in comparison with control group ([1]; 5-th day after injection, AFP 0.009 mg per capita i.v.) [%]
1 | CCCCC/C=C\C/C=C\C/C=C\C/C=C\CCCC(=O)NCCOP(=O)(O)O [N-AAP, N-arachidonoyl aminoethylphosphate] | 333 | not significantly changed | 342.2±28.5 | 36.0±8.7 10^3 per spleen | does not exhibit immunogenic activity; also recorded: no immunogenic activity | 46 mg/kg; | 87 | 63 (54.8 ÷ 72.5) mg/kg at p = 0.05; | 10 | – | – | –
2 | CCCCC/C=C\C/C=C\C/C=C\C/C=C\CCCC(=O)O [arachidonic acid, reference compound] | – | – | – | – | – | – | – | – | – | > 1.2 | – | –
3 | AFP: Alpha-fetoprotein isolated from human cord blood, more than 99% purity (protein, UniProt P02771 19-609, looked up) Alpha-fetoprotein: RTLHRNEYGIASILDSYQCTAEISLADLATIFFAQFVQEATYKEVSKMVKDALTAIEKPTGDEQSSGCLENQLPAFLEELCHEKEILEKYGHSDCCSQSEEGRHNCFLAHKKPTPASIPLFQVPEPVTSCEAYEEDRETFMNKFIYEIARRHPFLYAPTILLWAARYDKIIPSCCKAENAVECFQTKAATVTKELRESSLLNQHACAVMKNFGTRTFQAITVTKLSQKFTKVNFTEIQKLVLDVAHVHEHCCRGDVLDCLQDGEKIMSYICSQQDTLSNKITECCKLTTLERGQCIIHAENDEKPEGLSPNLNRFLGDRDFNQFSSGEKNIFLASFVHEYSRRHPQLAVSVILRVAKGYQELLEKCFQTENPLECQDKGEEELQKYIQESQALAKRSCGLFQKLGEYYLQNAFLVAYTKKAPQLTSSELMAITRKMAATAATCCQLSEDKLLACGEGAADIIIGHLCIRHEMTPVNPGVGQCCTSSYANRRPCFSSLVVDETYVPPAFSDDKFIFHKDLCQAQGVALQTMKQEFLINLVKQKPQITEEQLEAVIADFSGLLEKCCQGQEQEVCFAEEGQKLISKTRAALGV | – | – | 255.5±13 | 23.6±1.5 10^3 per spleen | reduces or does not significantly effect the immunogenic characteristics of sheep erythrocytes | – | – | – | – | – | not significantly changed | 30
4 | Rat AFP: Rat alpha-fetoprotein isolated from neonatal rat serum by immunoaffinity (protein, UniProt P02773 25-611, looked up) Alpha-fetoprotein: RVLHTNEFGIESTLDSSQCPTEKNMFNVATIVVAQFVQDATKAEVNKMSSDALAAMKENTGDGCLENQLSVFLDEICHETELSNKYGFSGCCNQSGVERHQCLLARKKTAPDSVPPFHFPETAESCPAYEENRAMSINTFIYDVSKRNPFLYAPTILYLAAQYDKAVPACCKADNMEECFQTKRASMAKELREGSMLNEHVCAVIRKFGSRNLQAVLIIKLSQKFPKANITEIRKLALDVAHIHEQCCHGNAMECLQDGESVMTHMCSQQEILSSKTAECCKLPTIELGYCIIHAENGDKPEGLTLNPSEFLGDRNFAQFSSEEKLLFMASFLHEYSRNHPNLPVSVILKTAKSYQEILEKCSQSETPSKCQDNMEEELQKHIQESQALAKQSCNLYQKLGPYYLQNLFLIGYTRKAPQLTSAELIDLTGKMVSIASTCCQLSEEKRSACGEGLADIYIGHLCLRHEANPVNSGINHCCSSSYSNRRLCITSFLRDETYVPPPFSEDKFIFHKDLCQAQGRALQTMKQELLINLVKQKPEMTEEQHAAVTADFSGLLEKCCKDQDQEACFAKEGPKLISKTREALGV | – | – | 428.1±11.5 | 60.3±13.5 10^3 per spleen | no immunogenic activity | – | – | – | – | – | – | –
